Laboratory results published in US12662451B2, “Chemical compounds and uses thereof” (GLAXOSMITHKLINE INTELLECTUAL PROPERTY (NO.4) LIMITED, priority 2023, dated 2026).
Structures can show the parent of a compound that is named as a salt. Where two headings read alike, the source gives them in different places.

Columns and labels:
[1] = target: T1, recombinant full-length WRN protein (1-1432) (Homo sapiens, UniProt Q14191); experiment: WRN unwinding activity, fluorogenic 384-well assay (Example A); assay type: biochemical; conditions: WRN unwinding activity, 4 hr; Table 2; read-out: 4 hr UNW pIC50 (converted)
T1 construct: recombinant full-length WRN protein (1-1432)
T1 sequence (Q14191 whole entry): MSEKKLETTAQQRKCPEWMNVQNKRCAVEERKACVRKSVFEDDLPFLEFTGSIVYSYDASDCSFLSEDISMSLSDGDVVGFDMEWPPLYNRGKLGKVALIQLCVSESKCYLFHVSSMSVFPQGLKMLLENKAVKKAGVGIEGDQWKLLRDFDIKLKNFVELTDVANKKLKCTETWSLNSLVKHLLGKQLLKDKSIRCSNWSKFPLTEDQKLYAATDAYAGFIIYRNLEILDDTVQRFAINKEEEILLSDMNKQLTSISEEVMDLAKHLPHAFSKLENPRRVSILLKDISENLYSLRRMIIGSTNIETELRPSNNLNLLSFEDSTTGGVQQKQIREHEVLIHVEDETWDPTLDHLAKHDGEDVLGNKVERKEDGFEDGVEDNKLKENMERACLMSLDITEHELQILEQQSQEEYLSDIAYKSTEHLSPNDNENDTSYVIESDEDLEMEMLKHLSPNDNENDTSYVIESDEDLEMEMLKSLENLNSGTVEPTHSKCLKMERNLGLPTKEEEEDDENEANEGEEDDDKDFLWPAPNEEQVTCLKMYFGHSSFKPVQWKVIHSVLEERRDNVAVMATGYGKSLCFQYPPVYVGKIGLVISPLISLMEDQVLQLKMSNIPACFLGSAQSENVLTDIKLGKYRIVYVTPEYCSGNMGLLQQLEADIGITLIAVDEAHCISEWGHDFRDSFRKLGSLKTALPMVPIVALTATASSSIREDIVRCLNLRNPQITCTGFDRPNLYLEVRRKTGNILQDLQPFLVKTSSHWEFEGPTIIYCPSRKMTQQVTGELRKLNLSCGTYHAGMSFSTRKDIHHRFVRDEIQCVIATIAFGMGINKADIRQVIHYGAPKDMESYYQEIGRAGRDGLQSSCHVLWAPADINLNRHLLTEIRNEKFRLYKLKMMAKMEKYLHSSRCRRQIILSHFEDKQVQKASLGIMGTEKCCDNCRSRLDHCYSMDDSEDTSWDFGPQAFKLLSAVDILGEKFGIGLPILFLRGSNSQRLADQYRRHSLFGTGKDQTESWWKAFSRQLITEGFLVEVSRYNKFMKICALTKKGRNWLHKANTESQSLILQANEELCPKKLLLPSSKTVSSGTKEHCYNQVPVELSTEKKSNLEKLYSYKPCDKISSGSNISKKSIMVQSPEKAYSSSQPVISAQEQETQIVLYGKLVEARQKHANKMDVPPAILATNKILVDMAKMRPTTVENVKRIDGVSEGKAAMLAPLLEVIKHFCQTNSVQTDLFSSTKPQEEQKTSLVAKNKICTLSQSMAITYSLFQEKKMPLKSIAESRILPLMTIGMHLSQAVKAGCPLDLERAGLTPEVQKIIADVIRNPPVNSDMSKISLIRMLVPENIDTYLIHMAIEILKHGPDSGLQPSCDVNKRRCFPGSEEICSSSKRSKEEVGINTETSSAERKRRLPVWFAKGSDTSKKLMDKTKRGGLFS
Outline: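 Read-out is end-point unwinding of a fluorophore/quencher duplex (ex 525, em 598 nm) after 60 min with 200 μM ATP and 12 nM DNA (2× stocks), EDTA stop. Compound first sat 4 h with 200 pM WRN (2× stock) in pH 8.0 Tris buffer; four-parameter fit gives pIC50.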

[2] = Cell culture media unbound percentage and stability by rapid equilibrium dialysis (Example C); assay type: in vitro ADME; conditions: bovine, cell assay medium (RPMI-1640 with 10% fetal bovine serum), pH 7.4, rapid equilibrium dialysis, 4 hours at 37° C., read-out: Cell Culture Media Binding (% unbound)
Procedure: (§1) It was observed that the compounds of the present disclosure are bound to cell assay media to various degrees, which would affect the cellular potency analysis in Example B. To measure free drug potency, concentrations used in the cell assays were corrected with the measured free fraction determined in the cell assay media. Compounds were incubated in a rapid equilibrium dialysis (RED) at a nominal concentration of 1 μM, using a dialysis buffer of phosphate-buffered saline (PBS, 100 mM sodium phosphate+150 mM sodium chloride, pH 7.4). The test compound was spiked into the medium. Aliquots were added to the donor wells of a RED plate in triplicate, and blank PBS was added to each receiver well, at volumes recommended by the manufacturer. Plates were incubated with shaking at 200 rpm for 4 hours at 37° C. The resultant samples were analysed by LC-MS/MS using a specific and sensitive method. Results were reported as analyte:internal standard peak area ratios (PARs), and the percent unbound was calculated with the following equation:
[formula] where D=the matrix dilution factor (D=1 for media); Apparent Fu=Crec/Cdon; Crec=PAR in receiver samples; Cdon=PAR in donor samples. Percent stability was calculated by:
(§2) [formula] where Cfinal=PAR in the T=240 minute sample; Cinitial=PAR in the T=0 minute sample. Cell culture media unbound percentage and calculated free drug potency of selected compounds along with their measured potency from Example B are shown in Table 3.

[3] = test system: SW48 human colorectal cancer cells (MSI-H cancer cells); experiment: SW48 cell viability, CellTiter-Glo, 120 hours (Example B); conditions: Homo sapiens
[4] = test system: SW48 human colorectal cancer cells; experiment: Calculated free drug potency in SW48 cell assay, corrected with media free fraction (Example C); assay type: cell-based; conditions: Homo sapiens, SW48, SW48 pCC50 corrected with measured free fraction in cell assay media
Procedure: as §1, §2

[5] = SW48, 120 h, read-out: SW48 pCC50, SW48 cell viability, 120 hours incubation (converted), Table 2
[6] = SW48, read-out: SW48 pCC50, measured potency from Example B, as repeated in Table 3 (converted)

Row | SMILES | IC50 [1] | fraction unbound at 4 h, 1 µM [2] | CC50 [3, 5] | CC50 [3, 6] | CC50 [4]
1 | Cc1nc2cc(S(=O)(=O)N(C)c3ccc([C@H]4C[C@@H](OCC(F)F)C[C@@H](C(=O)Nc5ccc(C(F)(F)F)cc5F)[C@@H]4C(=O)O)cc3)ccc2n1C (relative stereo) [Example 159, rel-(1R,2R,4R,6S)-4-(2,2-difluoroethoxy)-2-((2-fluoro-4-(trifluoromethyl)phenyl)carbamoyl)-6-(4-((N,1,2-trimethyl-1H-benzo[d]imidazole)-5-sulfonamido)phenyl)cyclohexane-1-carboxylic acid] | 2.51 nM | 0.0991 | 200 nM | 200 nM | 20 nM
2 | Cc1nc2cc(S(=O)(=O)N(C)c3ccc([C@H]4CCC[C@@H](C(=O)Nc5ccc(C(F)(F)F)cc5F)[C@@H]4C(=O)O)nc3)ccc2n1C (relative stereo) [Example 161, rel-(1R,2R,6S)-2-((2-fluoro-4-(trifluoromethyl)phenyl)carbamoyl)-6-(5-((N,1,2-trimethyl-1H-benzo[d]imidazole)-5-sulfonamido)pyridin-2-yl)cyclohexane-1-carboxylic acid] | 2.51 nM | 0.0481 | 794 nM | 794 nM | 38 nM
3 | Cc1nc2cc(S(=O)(=O)N(C)c3ccc([C@H]4CCC[C@@H](C(=O)Nc5ccc(C(F)(F)F)cc5F)[C@@H]4C(=O)O)cc3)cc([C@H]3CCCNC3)c2n1C (relative stereo) [Example 269, (1R,2R,6S)-2-((2-fluoro-4-(trifluoromethyl)phenyl)carbamoyl)-6-(4-((N,1,2-trimethyl-7-((R*)-piperidin-3-yl)-1H-benzo[d]imidazole)-5-sulfonamido)phenyl)cyclohexane-1-carboxylic acid hydrochloride] | 0.794 nM | 0.257 | 2510 nM | 2510 nM | 646 nM
4 | Cc1nc2cc(S(=O)(=O)N(C)c3ccc([C@H]4C[C@@H](O[C@@H]5CCOC5)C[C@@H](C(=O)Nc5ccc(C(F)(F)F)cc5F)[C@@H]4C(=O)O)cc3)ccc2n1C (relative stereo) [Example 321, (1R*,2R*,4R*,6S*)-2-((2-fluoro-4-(trifluoromethyl)phenyl)carbamoyl)-4-(((R)-tetrahydrofuran-3-yl)oxy)-6-(4-((N,1,2-trimethyl-1H-benzo[d]imidazole)-5-sulfonamido)phenyl)cyclohexane-1-carboxylic acid] | 1.58 nM | 0.16 | 200 nM | 200 nM | 31.6 nM
5 | Cc1nc2cc(S(=O)(=O)N(C)c3ccc([C@H]4C[C@@H](OC[C@H]5COCCO5)C[C@@H](C(=O)Nc5ccc(C(F)(F)F)cc5F)[C@@H]4C(=O)O)cc3)ccc2n1C (relative stereo) [Example 327, (1R*,2R*,4R*,6S*)-4-(((R)-1,4-dioxan-2-yl)methoxy)-2-((2-fluoro-4-(trifluoromethyl)phenyl)carbamoyl)-6-(4-((N,1,2-trimethyl-1H-benzo[d]imidazole)-5-sulfonamido)phenyl)cyclohexane-1-carboxylic acid] | 2.51 nM | 0.296 | 200 nM | 200 nM | 58.9 nM

Second part, led by results:

Row | IC50 [1] | fraction unbound at 4 h, 1 µM [2] | SMILES | CC50 [3, 5] | CC50 [3, 6] | CC50 [4]
6 | 5.01 nM | 0.0147 | COc1cccc(S(=O)(=O)N(C)c2ccc([C@H]3CCC[C@@H](C(=O)Nc4ccc(C(F)(F)F)cc4F)[C@@H]3C(=O)O)cc2)c1 (racemic) [Example 82] | 5010 nM | 5010 nM | 74.1 nM
7 | 1.26 nM | 0.129 | CO[C@@H]1C[C@H](C(=O)Nc2ccc(C(F)(F)F)cc2F)[C@@H](C(=O)O)[C@H](c2ccc(N(C)S(=O)(=O)c3ccc4c(c3)nc(C)n4C)cc2)C1 (relative stereo) [Example 148, rel-(1R,2R,4R,6S)-2-((2-fluoro-4-(trifluoromethyl)phenyl)carbamoyl)-4-methoxy-6-(4-((N,1,2-trimethyl-1H-benzo[d]imidazole)-5-sulfonamido)phenyl)cyclohexane-1-carboxylic acid] | 200 nM | 200 nM | 25.7 nM
8 | 2.51 nM | 0.0585 | Cc1nc2cc(S(=O)(=O)N(C)c3ccc([C@@H]4CCC[C@H](C(=O)Nc5ccc(C(F)(F)F)cn5)[C@H]4C(=O)O)cc3)ccc2n1C (relative stereo) [Example 168, rel-(1R,2R,6S)-2-((5-(trifluoromethyl)pyridin-2-yl)carbamoyl)-6-(4-((N,1,2-trimethyl-1H-benzo[d]imidazole)-5-sulfonamido)phenyl)cyclohexane-1-carboxylic acid] | 631 nM | 631 nM | 37.2 nM
9 | 1.58 nM | 0.0138 | Cc1nc2cc(S(=O)(=O)N(C)c3ccc([C@@H]4CCC[C@H](COc5ccc(C(F)(F)F)cc5)[C@H]4C(=O)O)cc3)cc([C@@H]3CCCNC3)c2n1C (relative stereo) [Example 207, rel-(1R,2R,6S)-2-((4-(trifluoromethyl)phenoxy)methyl)-6-(4-((N,1,2-trimethyl-7-((R)-piperidin-3-yl)-1H-benzo[d]imidazole)-5-sulfonamido)phenyl)cyclohexane-1-carboxylic acid, hydrochloride] | 7940 nM | 7940 nM | 110 nM
10 | 2 nM | 0.0332 | Cc1nc2cc(S(=O)(=O)N(C)c3ccc([C@H]4CC[C@@H](C)[C@@H](C(=O)Nc5ccc(C(F)(F)F)cc5F)[C@@H]4C(=O)O)cc3)ccc2n1C (relative stereo) [Example 235, rel-(1R,2R,3R,6S)-2-((2-fluoro-4-(trifluoromethyl)phenyl)carbamoyl)-3-methyl-6-(4-((N,1,2-trimethyl-1H-benzo[d]imidazole)-5-sulfonamido)phenyl)cyclohexane-1-carboxylic acid] | 251 nM | 251 nM | 8.32 nM
11 | 1.58 nM | 0.224 | Cc1nc2cc(S(=O)(=O)N(C)c3ccc([C@H]4CCC[C@@H](C(=O)Nc5ccc(C(F)(F)F)cc5F)[C@@H]4C(=O)O)cc3)cc([C@H]3CCCN(C)C3)c2n1C (relative stereo) [Example 271, (1R,2R,6S)-2-((2-fluoro-4-(trifluoromethyl)phenyl)carbamoyl)-6-(4-((N,1,2-trimethyl-7-((R*)-1-methylpiperidin-3-yl)-1H-benzo[d]imidazole)-5-sulfonamido)phenyl)cyclohexane-1-carboxylic acid] | 79.4 nM | 79.4 nM | 17.8 nM
12 | – | 0.0623 | Cc1nc2cc(S(=O)(=O)N(C)c3ccc([C@H]4C[C@H](N5CCC(F)(F)CC5)C[C@@H](C(=O)Nc5ccc(C(F)(F)F)cc5F)[C@@H]4C(=O)O)cc3)ccc2n1C (relative stereo) [Example 342, rel-(1R,2R,4S,6S)-4-(4,4-difluoropiperidin-1-yl)-2-((2-fluoro-4-(trifluoromethyl)phenyl)carbamoyl)-6-(4-((N,1,2-trimethyl-1H-benzo[d]imidazole)-5-sulfonamido)phenyl)cyclohexane-1-carboxylic acid] | 6310 nM | 6310 nM | 389 nM
